Test [1] addresses T1, D(2) dopamine receptor (Homo sapiens, UniProt P14416). The experiment in a line: ChEBML_59152. An excerpt:
(§1) Binding affinity against dopamine receptor D2 by using [3H]spiperone as radioligand in caudate-putamen of monkey

Test [2] concerns the target T1, D(2) dopamine receptor. The description is as §1.
The target in a further test is D(1A) dopamine receptor. As to the kind of experiment: Binding affinity against dopamine receptor D1 by using [3H]-SCH- 23390 as radioligand in caudate-putamen of monkey.

For orientation: Ki means the equilibrium dissociation constant of an inhibitor or competing ligand from its target.

T1 sequence (P14416 whole entry): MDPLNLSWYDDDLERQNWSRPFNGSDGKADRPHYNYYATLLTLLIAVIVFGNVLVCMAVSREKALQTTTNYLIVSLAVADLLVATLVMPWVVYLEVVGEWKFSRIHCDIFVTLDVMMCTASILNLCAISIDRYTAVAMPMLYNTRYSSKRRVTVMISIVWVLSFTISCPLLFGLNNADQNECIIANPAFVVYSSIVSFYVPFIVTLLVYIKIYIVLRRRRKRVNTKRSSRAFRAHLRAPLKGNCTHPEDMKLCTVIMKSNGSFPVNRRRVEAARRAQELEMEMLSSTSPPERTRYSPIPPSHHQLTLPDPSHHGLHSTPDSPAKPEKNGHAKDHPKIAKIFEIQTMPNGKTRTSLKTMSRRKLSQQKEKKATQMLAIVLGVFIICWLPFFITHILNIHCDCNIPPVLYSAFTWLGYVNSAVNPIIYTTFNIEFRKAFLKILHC

`CN1CCc2cc(Br)c(O)cc2C(c2ccc(NC(=S)Nc3ccc4c(c3)C(=O)OC43c4ccc(O)cc4Oc4cc(O)ccc43)cc2)C1` (stereo not given): on D(2) dopamine receptor [1], the Ki is above 5000 nM.
`CCCN(CCc1ccc(N)cc1)C1CCc2c(O)cccc2C1` (racemic): the Ki at D(2) dopamine receptor [2] turned out to be 6.8 nM; on D(1A) dopamine receptor, 710 nM.
In the case of `CN1CCc2cc(Br)c(O)cc2C(c2ccc(Nc3ccc([N+](=O)[O-])c4n[o+][n-]c34)cc2)C1` (stereo not given), at D(2) dopamine receptor [1], the Ki was 710 nM.
Molecule `O=C1OC2(c3ccc(O)cc3Oc3cc(O)ccc32)c2ccc(NC(=S)Nc3ccc(C4CNCCc5cc(O)c(O)cc54)cc3)cc21` (stereo not given) yielded a Ki on D(1A) dopamine receptor of 10000 nM.
With `CCCN(CCc1ccc(C)cc1)[C@H]1CCc2c(O)cccc2C1`, the values for the Ki on D(2) dopamine receptor [2] and at D(1A) dopamine receptor were 6.7 nM and 270 nM, respectively.
Turning to `CN1CCc2cc(Br)c(O)cc2C(c2ccc(N)cc2)C1` (stereo not given), the Ki at D(2) dopamine receptor [1] is 1600 nM.
As for `CCCN(CCc1ccc(NC(=S)Nc2ccc3c(c2)C(=O)OC32c3ccc(O)cc3Oc3cc(O)ccc32)cc1)[C@@H]1CCc2c(O)cccc2C1`, the Ki at D(2) dopamine receptor [2] was 110 nM.
Regarding `CCCN(CCc1ccc(C)cc1)[C@@H]1CCc2c(O)cccc2C1`, the Ki at D(2) dopamine receptor [2] is 170 nM; on D(1A) dopamine receptor, 4900 nM.
`O=C(CCCN1CCC2(CC1)C(=O)N(CCc1ccc(Nc3ccc([N+](=O)[O-])c4n[o+][n-]c34)cc1)CN2c1ccccc1)c1ccc(F)cc1` returned a Ki at D(2) dopamine receptor [1] of 0.66 nM.
On D(2) dopamine receptor [2], `CCCN(CCc1ccc(Nc2ccc([N+](=O)[O-])c3n[o+][n-]c23)cc1)C1CCc2c(O)cccc2C1` (stereo not given) displayed a Ki of 0.45 nM.
For the molecule `CCCN(CCc1ccc(NC(=S)Nc2ccc3c(c2)C(=O)OC32c3ccc(O)cc3Oc3cc(O)ccc32)cc1)[C@H]1CCc2c(O)cccc2C1`, the Ki at D(2) dopamine receptor [1] came out at 4.8 nM.
On the same count and under the same terms, under `CCCN(CCc1ccc(NC(=S)Nc2ccc3c(c2)C(=O)OC32c3ccc(O)cc3Oc3cc(O)ccc32)cc1)C1CCc2c(O)cccc2C1` (racemic) stands 7 nM.
